Measurements taken from patent US8664257B2, “Oxygen-substituted 3-heteroaroylamino-propionic acid derivatives and their use as pharmaceuticals” (Sanofi, priority 2010, dated 2014).

These compounds were tested against T1, Recombinant human cathepsin A (Homo sapiens, UniProt P10619) (assay: Cathepsin A inhibitory activity). Conditions: pharmacological test "Cathepsin A inhibitory activity"; IC50 given as class A/B/C; read-out: Activity (2): Cathepsin A inhibitory activity, IC50 class.
T1 construct: Recombinant human cathepsin A (residues 29-480, with a C-terminal 10-His tag); 10-His (C); purchased R&D Systems 1049-SE
T1 sequence (P10619 29-312 limits assumed): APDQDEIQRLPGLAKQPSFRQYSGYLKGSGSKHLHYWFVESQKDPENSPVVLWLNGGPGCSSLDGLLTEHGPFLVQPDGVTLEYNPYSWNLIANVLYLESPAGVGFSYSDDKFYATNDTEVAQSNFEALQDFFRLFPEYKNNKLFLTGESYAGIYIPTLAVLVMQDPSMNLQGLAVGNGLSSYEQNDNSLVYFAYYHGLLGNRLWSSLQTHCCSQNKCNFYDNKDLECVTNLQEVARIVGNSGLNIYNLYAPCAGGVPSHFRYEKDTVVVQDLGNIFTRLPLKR
T1 sequence (P10619 327-480 limits assumed): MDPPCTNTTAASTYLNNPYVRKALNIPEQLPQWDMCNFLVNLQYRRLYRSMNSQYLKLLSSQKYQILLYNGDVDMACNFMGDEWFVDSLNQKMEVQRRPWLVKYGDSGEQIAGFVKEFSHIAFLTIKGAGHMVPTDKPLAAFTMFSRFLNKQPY
Format: biochemical
Protocol: a) Cathepsin A Inhibitory Activity
Recombinant human cathepsin A (residues 29-480, with a C-terminal 10-His tag; R&D Systems, #1049-SE) was proteolytically activated with recombinant human cathepsin L (R&D Systems, #952-CY). Briefly, cathepsin A was incubated at 10 μg/ml with cathepsin L at 1 μg/ml in activation buffer (25 mM 2-(morpholin-4-yl)-ethanesulfonic acid (MES), pH 6.0, containing 5 mM dithiothreitol (DTT)) for 15 min at 37° C. Cathepsin L activity was then stopped by the addition of the cysteine protease inhibitor E-64 (N-(trans-epoxysuccinyl)-L-leucine-4-guanidinobutylamide; Sigma-Aldrich, #E3132; dissolved in activation buffer/DMSO) to a final concentration of 10 μM.
The activated cathepsin A was diluted in assay buffer (25 mM MES, pH 5.5, containing 5 mM DTT) and mixed with the test compound (dissolved in assay buffer containing (v/v) 3% DMSO) or, in the control experiments, with the vehicle in a multiple assay plate. After incubation for 15 min at room temperature, as substrate then bradykinin carrying an N-terminal®Bodipy FL (4,4-difluoro-5,7-dimethyl-4-bora-3a,4a-diaza-s-indacene-3-propionyl) label (JPT Peptide Technologies GmbH; dissolved in assay buffer) was added to the mixture. The final concentration of cathepsin A was 833 ng/ml and the final concentration of labeled bradykinin 2 μM. After incubation for 15 min at room temperature the reaction was stopped by the addition of stop buffer (130 mM 2-(4-(2-hydroxy-ethyl)-piperazin-1-yl)-ethanesulfonic acid, pH 7.4, containing (v/v) 0.013% Triton X-100, 0.13% Coating Reagent 3 (Caliper Life Sciences), 6.5% DMSO and 20 μM ebelactone B (Sigma, # E0886)).
Uncleaved substrate and product were then separated by a microfluidic capillary electrophoresis on a LabChip® 3000 Drug Discovery System (12-Sipper-Chip; Caliper Life Sciences) and quantified by determination of the respective peak areas. Substrate turnover was calculated by dividing product peak area by the sum of substrate and product peak areas, and the enzyme activity and the inhibitory effect of the test compound thus quantified. From the percentage of inhibition of cathepsin A activity observed with the test compound at several concentrations, the inhibitory concentration IC50, i.e. the concentration which effects 50% inhibition of enzyme activity was, calculated.

IC50 | Structure (SMILES)
1000 to 30000 nM | Cc1ccccc1[C@H](CC(=O)O)NC(=O)c1cc(O)n(-c2nccc(C(F)(F)F)n2)n1 [Example 138]
100 to 1000 nM | COc1ccc([C@H](CC(=O)O)NC(=O)c2cc(O)n(-c3ccccc3Cl)n2)cn1 [Example 139]
100 to 1000 nM | O=C(O)C[C@H](NC(=O)c1cc(O)n(-c2ccccc2F)n1)c1cccnc1 [Example 140]

Same assay, conditions: read-out: Activity (2): Cathepsin A inhibitory activity, IC50 class

IC50 | Structure (SMILES)
100 to 1000 nM | Cc1ccccc1C(CC(=O)O)NC(=O)c1cc(O)n(-c2ccc(F)c(Cl)c2)n1 (stereo not drawn) [Example 80]
< 100 nM | Cc1ccccc1[C@H](CC(=O)O)NC(=O)c1cc(O)n(-c2ccccc2)n1 [Example 82]
1000 to 30000 nM | Cc1ccccc1[C@@H](CC(=O)O)NC(=O)c1cc(O)n(-c2ccccc2)n1 [Example 83]
100 to 1000 nM | Cc1ccc(C(CC(=O)O)NC(=O)c2cc(O)n(-c3ccccc3)n2)c(C)c1 (stereo not drawn) [Example 84]
100 to 1000 nM | Cc1cc(F)ccc1C(CC(=O)O)NC(=O)c1cc(O)n(-c2ccccc2)n1 (stereo not drawn) [Example 85]
1000 to 30000 nM | O=C(O)CC(NC(=O)c1cc(O)n(-c2ccc(F)cc2)n1)c1ccc(F)cc1F (stereo not drawn) [Example 86]
100 to 1000 nM | COc1ccc(-n2nc(C(=O)N[C@@H](CC(=O)O)c3ccccc3C)cc2O)cc1 [Example 87]
1000 to 30000 nM | COc1ccc(C(CC(=O)O)NC(=O)c2cc(O)n(-c3ccc(F)c(Cl)c3)n2)c(F)c1 (stereo not drawn) [Example 88]
100 to 1000 nM | Cc1ccc(C(CC(=O)O)NC(=O)c2cc(O)n(-c3ccc(F)cc3)n2)c(C)c1 (stereo not drawn) [Example 89]
1000 to 30000 nM | COc1ccc(C(CC(=O)O)NC(=O)c2cc(O)n(-c3ccc(F)cc3)n2)c(F)c1 (stereo not drawn) [Example 90]
1000 to 30000 nM | Cc1ccc(C(CC(=O)O)NC(=O)c2cc(O)n(-c3ccc(F)c(Cl)c3)n2)c(C)c1 (stereo not drawn) [Example 91]
100 to 1000 nM | COc1ccc(C(CC(=O)O)NC(=O)c2cc(O)n(-c3ccccc3)n2)c(F)c1 (stereo not drawn) [Example 92]
100 to 1000 nM | COc1cccc(-n2nc(C(=O)N[C@@H](CC(=O)O)c3ccccc3C)cc2O)c1 [Example 94]
100 to 1000 nM | O=C(O)C[C@H](NC(=O)c1cc(O)n(-c2ccccc2)n1)c1ccc(Cl)cc1Cl [Example 95]
100 to 1000 nM | O=C(O)C[C@H](NC(=O)c1cc(O)n(-c2ccccc2)n1)c1ccccc1F [Example 96]
100 to 1000 nM | O=C(O)C[C@H](NC(=O)c1cc(O)n(-c2ccccc2)n1)c1ccccc1C(F)(F)F [Example 97]
100 to 1000 nM | O=C(O)C[C@H](NC(=O)c1cc(O)n(-c2ccccc2)n1)c1ccc(Cl)cc1 [Example 98]
100 to 1000 nM | O=C(O)C[C@H](NC(=O)c1cc(O)n(-c2ccccc2)n1)c1ccc(C(F)(F)F)cc1 [Example 99]
100 to 1000 nM | COc1ccccc1[C@H](CC(=O)O)NC(=O)c1cc(O)n(-c2ccccc2)n1 [Example 100]
100 to 1000 nM | N#Cc1ccc([C@H](CC(=O)O)NC(=O)c2cc(O)n(-c3ccccc3)n2)cc1 [Example 101]
100 to 1000 nM | O=C(O)CC(NC(=O)c1cc(O)n(-c2ccccc2)n1)c1ccc(Oc2ccccc2)cc1 (stereo not drawn) [Example 102]
100 to 1000 nM | O=C(O)C[C@H](NC(=O)c1cc(O)n(-c2ccccc2)n1)c1c(F)cccc1F [Example 103]
100 to 1000 nM | O=C(O)CC(NC(=O)c1cc(O)n(-c2ccccc2)n1)c1ccc(-c2ccc(F)cc2)cc1 (stereo not drawn) [Example 104]
1000 to 30000 nM | O=C(O)CC(NC(=O)c1cc(O)n(-c2ccccc2)n1)c1ccc(-n2ccnc2)cc1 (stereo not drawn) [Example 105]
100 to 1000 nM | O=C(O)C[C@H](NC(=O)c1cc(O)n(-c2ccccc2Cl)n1)c1ccc(Cl)cc1Cl [Example 106]
100 to 1000 nM | O=C(O)C[C@H](NC(=O)c1cc(O)n(-c2ccccc2Cl)n1)c1ccccc1F [Example 107]
100 to 1000 nM | O=C(O)C[C@H](NC(=O)c1cc(O)n(-c2ccccc2Cl)n1)c1ccccc1C(F)(F)F [Example 108]
100 to 1000 nM | O=C(O)C[C@H](NC(=O)c1cc(O)n(-c2ccccc2Cl)n1)c1ccc(Cl)cc1 [Example 109]

IC50 | Structure (SMILES)
100 to 1000 nM | O=C(O)C[C@H](NC(=O)c1cc(O)n(-c2ccccc2Cl)n1)c1ccc(C(F)(F)F)cc1 [Example 110]
100 to 1000 nM | COc1ccccc1[C@H](CC(=O)O)NC(=O)c1cc(O)n(-c2ccccc2Cl)n1 [Example 111]
100 to 1000 nM | N#Cc1ccc([C@H](CC(=O)O)NC(=O)c2cc(O)n(-c3ccccc3Cl)n2)cc1 [Example 112]
100 to 1000 nM | O=C(O)CC(NC(=O)c1cc(O)n(-c2ccccc2Cl)n1)c1ccc(Oc2ccccc2)cc1 (stereo not drawn) [Example 113]
100 to 1000 nM | O=C(O)C[C@H](NC(=O)c1cc(O)n(-c2ccccc2Cl)n1)c1c(F)cccc1F [Example 114]
< 100 nM | O=C(O)CC(NC(=O)c1cc(O)n(-c2ccccc2Cl)n1)c1ccc(-c2ccc(F)cc2)cc1 (stereo not drawn) [Example 115]
1000 to 30000 nM | O=C(O)CC(NC(=O)c1cc(O)n(-c2ccccc2Cl)n1)c1ccc(-n2ccnc2)cc1 (stereo not drawn) [Example 116]
100 to 1000 nM | O=C(O)C[C@H](NC(=O)c1cc(O)n(-c2ccccc2F)n1)c1ccc(Cl)cc1Cl [Example 117]
100 to 1000 nM | O=C(O)C[C@H](NC(=O)c1cc(O)n(-c2ccccc2F)n1)c1ccccc1F [Example 118]
100 to 1000 nM | O=C(O)C[C@H](NC(=O)c1cc(O)n(-c2ccccc2F)n1)c1ccccc1C(F)(F)F [Example 119]
100 to 1000 nM | O=C(O)C[C@H](NC(=O)c1cc(O)n(-c2ccccc2F)n1)c1ccc(Cl)cc1 [Example 120]
100 to 1000 nM | O=C(O)C[C@H](NC(=O)c1cc(O)n(-c2ccccc2F)n1)c1ccc(C(F)(F)F)cc1 [Example 121]
100 to 1000 nM | COc1ccccc1[C@H](CC(=O)O)NC(=O)c1cc(O)n(-c2ccccc2F)n1 [Example 122]
100 to 1000 nM | N#Cc1ccc([C@H](CC(=O)O)NC(=O)c2cc(O)n(-c3ccccc3F)n2)cc1 [Example 123]
100 to 1000 nM | O=C(O)CC(NC(=O)c1cc(O)n(-c2ccccc2F)n1)c1ccc(Oc2ccccc2)cc1 (stereo not drawn) [Example 124]
100 to 1000 nM | O=C(O)C[C@H](NC(=O)c1cc(O)n(-c2ccccc2F)n1)c1c(F)cccc1F [Example 125]
< 100 nM | O=C(O)CC(NC(=O)c1cc(O)n(-c2ccccc2F)n1)c1ccc(-c2ccc(F)cc2)cc1 (stereo not drawn) [Example 126]
1000 to 30000 nM | O=C(O)CC(NC(=O)c1cc(O)n(-c2ccccc2F)n1)c1ccc(-n2ccnc2)cc1 (stereo not drawn) [Example 127]
< 100 nM | COc1cc(C(=O)N[C@@H](CC(=O)O)c2ccccc2C)nn1-c1ccccc1F [Example 129, (S)-3-{[1-(2-Fluoro-phenyl)-5-methoxy-1H-pyrazole-3-carbonyl]-amino}-3-o-tolyl-propionic acid]
1000 to 30000 nM | Cc1ccccc1[C@H](CC(=O)O)NC(=O)c1cc(O)n(-c2ccc(Cl)cn2)n1 [Example 130]
100 to 1000 nM | Cc1ccccc1[C@H](CC(=O)O)NC(=O)c1cc(O)n(-c2ccnc(Cl)c2)n1 [Example 131]
100 to 1000 nM | COc1ccc(C(CC(=O)O)NC(=O)c2cc(O)n(-c3ccccc3Cl)n2)c(F)c1 (stereo not drawn) [Example 132]
100 to 1000 nM | COc1ccc(C(CC(=O)O)NC(=O)c2cc(O)n(-c3ccccc3F)n2)c(F)c1 (stereo not drawn) [Example 133]
100 to 1000 nM | CCc1ccc(C(CC(=O)O)NC(=O)c2cc(O)n(-c3ccccc3F)n2)cc1 (stereo not drawn) [Example 134]
100 to 1000 nM | Cc1ccc([C@H](CC(=O)O)NC(=O)c2cc(O)n(-c3ccccc3Cl)n2)cc1 [Example 135, (S)-3-{[1-(2-Chloro-phenyl)-5-hydroxy-1H-pyrazole-3-carbonyl]-amino}-3-p-tolyl-propionic acid]
100 to 1000 nM | COc1ccc([C@H](CC(=O)O)NC(=O)c2cc(O)n(-c3ccccc3F)n2)cn1 [Example 136]
100 to 1000 nM | O=C(O)C[C@H](NC(=O)c1cc(O)n(-c2ccccc2)n1)c1cccnc1 [Example 137]

Same assay, conditions: recombinant human cathepsin A 833 ng/ml, Bodipy FL-labeled bradykinin 2 μM, pH 5.5; read-out: CATH-A IC50

IC50 | Structure (SMILES)
41.2 nM | COc1cc(C(=O)N[C@@H](CC(=O)O)c2ccccc2C)nn1-c1ccccc1F [Example 129, (S)-3-{[1-(2-Fluoro-phenyl)-5-methoxy-1H-pyrazole-3-carbonyl]-amino}-3-o-tolyl-propionic acid]
211 nM | Cc1ccc([C@H](CC(=O)O)NC(=O)c2cc(O)n(-c3ccccc3Cl)n2)cc1 [Example 135, (S)-3-{[1-(2-Chloro-phenyl)-5-hydroxy-1H-pyrazole-3-carbonyl]-amino}-3-p-tolyl-propionic acid]
